Values joined by “and” are separate entries in the source; they are usually repeats but may differ in a detail not shown here. Equal entries are not always repeated. Where two headings read alike, the source gives them in different places.
Columns and labels:
[1] = system: SARS-CoV-2; conditions: cited from earlier work
[2] = system: A549+ACE2 cells
[3] = system: SARS-CoV-2 USA-WA1/2020; assay: microbe, parasite or virus in culture; type: cell-based
[4] = system: SARS-CoV-2 USA-WA1/2020; assay: Time-of-drug-addition assay in A549+ACE2 cells; type: cell-based; conditions: 12 hpi
[5] = system: SARS-CoV-2 USA/NYU-VC-003/2020; assay: microbe, parasite or virus in culture; type: cell-based
[6] = system: polarized human airway epithelial cultures (HAEC)
[7] = system: SARS-CoV-2 USA-WA1/2020; type: cell-based; conditions: for SARS-CoV-2 infectious titers in apical washes: 10 μM basolateral, washes in 12 h increments up to 72 h; for number of SARS-CoV-2-N-expressing infected cells in HAEC: 10 μM, 72 h endpoint, immunofluorescence
[8] = system: coronavirus 3CL^pro; conditions: cited from earlier work
[9] = system: BCi-NS1.1 cells; conditions: dose range up to 10 μM, 48 hours
[10] = in vitro; conditions: human
[11] = system: COVID-19; conditions: patients with more advanced infection, intravenous ref 55; cited from earlier work
[12] = Severe acute respiratory syndrome coronavirus 2, A549-ACE2

| Structure (SMILES) | CC50 [2] | EC50 [3] | protection of A549+ACE2 cells from virus-induced CPE [3] | minimum treatment dose that led to undetectable infection levels [4] | EC50 [5] | EC90 [5] | adverse effects on morphology of HAEC (histology) [6] | trans-epithelial resistance (TEER) over time [6] | SARS-CoV-2 infectious titers in apical washes [7] | number of SARS-CoV-2-N-expressing infected cells in HAEC [7] | ATP levels as a measure of cell viability [9] | protection of A549+ACE2 cells from ring syncytia formation (CPE) [3] | other results |
| --- | --- | --- | --- | --- | --- | --- | --- | --- | --- | --- | --- | --- | --- |
| CC(C)C[C@H](NC(=O)OCc1ccccc1)C(=O)N[C@@H](CC1CCNC1=O)C(O)S(=O)(=O)[O-].[Na+] (some centres unmarked) [GC-376] | > 10000 nM | 623 nM and 696 nM | unable to protect cells from virus-induced CPE | 10 µM | 529 nM | 2730 nM | – | – | – | – | – | – | EC50 ([1]; Vero E6 cells ref 11): 900 nM; EC90 [3]: 4550 nM and 5250 nM |
| COc1cccc2[nH]c(C(=O)N[C@@H](CC(C)C)C(=O)N[C@@H](C[C@@H]3CCNC3=O)C(=O)CO)cc12 [PF-00835231] | > 10000 nM | – | fully protected | 3 µM | 184 nM and 326 nM | 591 nM and 1170 nM | Neither drug caused measurable adverse effects on the morphology | did not observe this trend | viral titers below the limit of detection at most time points | number of infected cells significantly reduced | did not detect a decrease in ATP | fully protected | change in antiviral efficacy when blocking MDR1 activity [7]: no changes in antiviral efficacy; effect of chemical inhibition of MDR1 on antiviral efficacy ([1]; Vero E6 cells ref 9, 14): significantly increased; EC50 ([1]; Vero E6 cells ref 9): 270 nM; inhibition of 3CL^pro protease activity [8]: potent inhibition; change in antiviral efficacy when blocking MDR1 activity [3]: no changes in antiviral efficacy |
| CCC(CC)COC(=O)[C@H](C)N[P@](=O)(OC[C@H]1O[C@@](C#N)(c2ccc3c(N)ncnn23)[C@H](O)[C@@H]1O)Oc1ccccc1 [remdesivir] | – | 238 nM | – | 10 µM | 238 nM | – | Neither drug caused measurable adverse effects on the morphology | negatively impacted TEER over time, albeit not statistically significantly | viral titers below the limit of detection at most time points | number of infected cells significantly reduced | caused a reduction in ATP levels compared to carrier control, albeit not statistically significantly | fully protected | CC50 [10]: > 10000 nM; EC50 [3, 12]: 442 nM; EC50 [5, 12]: 283 nM; EC90 [5, 12]: 589 nM; patients with benefit [11]: 68% |

Reference: article PMC7457613 (bioRxiv, 2021)
